Key:
P. aeruginosa = experiment: microbe, parasite or virus in culture; conditions: agent alone
Method: (§1) FICs are performed by checkerboard titrations of peptides in one dimension of a microtiter plate, and of antibiotics in the other dimension, for example. The FIC is calculated by looking at the impact of one antibiotic on the MIC of the other and vice versa. […] Preferably, an FIC of less than 0.5 is obtained for synergism. As used herein, FIC can be determined as follows: [formula]
(§2) Synergism is identified as an FIC of about ≦0.5.

A. calcoaceticus = experiment: Synergy of peptide and antibiotic, MIC and FIC (checkerboard); assay type: cell-based; conditions: Acinetobacter calcoaceticus, agent alone
Method: as §1, §2

E. cloacae = experiment: as above; assay type: cell-based; conditions: Enterobacter cloacae, agent alone
Method: as §1, §2

X. maltophila = experiment: as above; assay type: cell-based; conditions: agent alone
Method: as §1, §2

[1] = Pseudomonas aeruginosa, P. aeruginosa isolate 23, strain ATCC 27853
[2] = Pseudomonas aeruginosa, P. aeruginosa isolate 24, strain 34
[3] = Pseudomonas aeruginosa, P. aeruginosa isolate 25, strain 923-1
[4] = Pseudomonas aeruginosa, P. aeruginosa isolate 26, strain 3101
[5] = Pseudomonas aeruginosa, P. aeruginosa isolate 27, strain 14644
[6] = Pseudomonas aeruginosa, P. aeruginosa isolate 28, strain 15036
[7] = Pseudomonas aeruginosa, P. aeruginosa isolate 29, strain 15545
[8] = Pseudomonas aeruginosa, P. aeruginosa isolate 30, strain B3999-1
[9] = A. calcoaceticus isolate 1, strain ATCC 23055
[10] = A. calcoaceticus isolate 4, strain 28
[11] = A. calcoaceticus isolate 5, strain 8220
[12] = A. calcoaceticus isolate 6, strain 8221
[13] = A. calcoaceticus isolate 7, strain 8222
[14] = A. calcoaceticus isolate 8, strain 8223
[15] = A. calcoaceticus isolate 9, strain 8224
[16] = A. calcoaceticus isolate 10, strain 8225
[17] = A. calcoaceticus isolate 11, strain 8226
[18] = A. calcoaceticus isolate 2, strain 23
[19] = E. cloacae isolate 12, strain ATCC 13047
[20] = E. cloacae isolate 13, strain 37-1
[21] = E. cloacae isolate 14, strain 938-2
[22] = E. cloacae isolate 15, strain B5546
[23] = E. cloacae isolate 16, strain R4148
[24] = E. cloacae isolate 17, strain R4148-2
[25] = E. cloacae isolate 18, strain 3077
[26] = E. cloacae isolate 19, strain 3356
[27] = E. cloacae isolate 20, strain 14269
[28] = E. cloacae isolate 21, strain 14661
[29] = E. cloacae isolate 22, strain 18801
[30] = Pseudomonas aeruginosa, P. aeruginosa isolate 31, strain U7688-1
[31] = Pseudomonas aeruginosa, P. aeruginosa isolate 32, strain W2897-1
[32] = A. calcoaceticus isolate 3, strain 27
[33] = X. maltophila isolate 35, strain 6
[34] = X. maltophila isolate 37, strain 3095
[35] = X. maltophila isolate 38, strain 7901
[36] = X. maltophila isolate 39, strain B3110.1
[37] = X. maltophila isolate 40, strain R1302-1
[38] = X. maltophila isolate 41, strain R4230
[39] = X. maltophila isolate 42, strain TF29-1
[40] = X. maltophila isolate 43, strain TF29-2
[41] = X. maltophila isolate 44, strain W6896-2
[42] = X. maltophila isolate 36, strain 16
[43] = X. maltophila isolate 45, strain W11291

For C[C@@H](O)[C@H]1C(=O)N2C(C(=O)O)=C(SCCN=CN)C[C@H]12 [Imipenem], the MIC (P. aeruginosa; [1]) was 8 µg/mL, the MIC (P. aeruginosa; [2]) was 512 µg/mL and the MIC (P. aeruginosa; [3]) was 4 µg/mL. For the same molecule, the MIC (P. aeruginosa; [4]) was 8 µg/mL, the MIC (P. aeruginosa; [5]) was 16 µg/mL and the MIC (P. aeruginosa; [6]) was 16 µg/mL. For the same molecule, the MIC (P. aeruginosa; [7]) was 256 µg/mL, the MIC (P. aeruginosa; [8]) was 256 µg/mL and the MIC (A. calcoaceticus; [9]) was 2 µg/mL. The MIC (A. calcoaceticus; [10]) was 16 µg/mL, the MIC (A. calcoaceticus; [11]) was 2 µg/mL and the MIC (A. calcoaceticus; [12]) was 1 µg/mL. It also gave an MIC (A. calcoaceticus; [13]) of 4 µg/mL, an MIC (A. calcoaceticus; [14]) of 2 µg/mL and an MIC (A. calcoaceticus; [15]) of 2 µg/mL. For the same molecule, the MIC (A. calcoaceticus; [16]) was 2 µg/mL, the MIC (A. calcoaceticus; [17]) was 4 µg/mL and the MIC (A. calcoaceticus; [18]) was 512 µg/mL. It also gave an MIC (E. cloacae; [19]) of 1 µg/mL, an MIC (E. cloacae; [20]) of 2 µg/mL and an MIC (E. cloacae; [21]) of 4 µg/mL. For the same molecule, the MIC (E. cloacae; [22]) was 2 µg/mL, the MIC (E. cloacae; [23]) was 4 µg/mL and the MIC (E. cloacae; [24]) was 2 µg/mL. The MIC (E. cloacae; [25]) was 4 µg/mL, the MIC (E. cloacae; [26]) was 4 µg/mL and the MIC (E. cloacae; [27]) was 4 µg/mL. It also gave an MIC (E. cloacae; [28]) of 2 µg/mL and an MIC (E. cloacae; [29]) of 2 µg/mL.

Molecule NC[C@H]1O[C@H](O[C@H]2[C@H](O)[C@@H](O[C@H]3O[C@H](CO)[C@@H](O)[C@H](N)[C@H]3O)[C@H](N)C[C@@H]2N)[C@H](N)C[C@@H]1O [Tobramycin] has an MIC (P. aeruginosa; [1]) of 1 µg/mL, an MIC (P. aeruginosa; [2]) of 64 µg/mL and an MIC (P. aeruginosa; [3]) of 1 µg/mL. For the same molecule, the MIC (P. aeruginosa; [4]) was 1 µg/mL, the MIC (P. aeruginosa; [5]) was 2 µg/mL and the MIC (P. aeruginosa; [6]) was 1 µg/mL. It also gave an MIC (P. aeruginosa; [7]) of 2 µg/mL, an MIC (P. aeruginosa; [8]) of 2 µg/mL and an MIC (P. aeruginosa; [30]) of 1 µg/mL. It also gave an MIC (P. aeruginosa; [31]) of 1 µg/mL, an MIC (P. aeruginosa; Pseudomonas aeruginosa, P. aeruginosa isolate 33, strain W5483-2) of 1 µg/mL and an MIC (P. aeruginosa; Table 33, P. aeruginosa isolate 23, strain ATCC 27853) of 1 μg · mL^1. For the same molecule, the MIC (P. aeruginosa; Table 33, P. aeruginosa isolate 24, strain 34) was 64 μg · mL^1, the MIC (P. aeruginosa; Table 33, P. aeruginosa isolate 25, strain 923-1) was 1 μg · mL^1 and the MIC (P. aeruginosa; Table 33, P. aeruginosa isolate 26, strain 3101) was 1 μg · mL^1. It also gave an MIC (P. aeruginosa; Table 33, P. aeruginosa isolate 27, strain 14644) of 1 μg · mL^1, an MIC (P. aeruginosa; Table 33, P. aeruginosa isolate 28, strain 15036) of 1 μg · mL^1 and an MIC (P. aeruginosa; Table 33, P. aeruginosa isolate 29, strain 15545) of 2 μg · mL^1. For the same molecule, the MIC (P. aeruginosa; Table 33, P. aeruginosa isolate 30, strain B3999-1) was 1 μg · mL^1, the MIC (P. aeruginosa; Table 33, P. aeruginosa isolate 31, strain U7688-1) was 2 μg · mL^1 and the MIC (P. aeruginosa; Table 33, P. aeruginosa isolate 32, strain W2897-1) was 1 μg · mL^1. For the same molecule, the MIC (P. aeruginosa; Table 33, P. aeruginosa isolate 33, strain W5483-2) was 2 μg · mL^1, the MIC (A. calcoaceticus; [9]) was 4 µg/mL and the MIC (A. calcoaceticus; [32]) was 1 µg/mL. It also gave an MIC (A. calcoaceticus; [10]) of 128 µg/mL, an MIC (A. calcoaceticus; [11]) of 4 µg/mL and an MIC (A. calcoaceticus; [12]) of 4 µg/mL. For the same molecule, the MIC (A. calcoaceticus; [13]) was 4 µg/mL, the MIC (A. calcoaceticus; [14]) was 4 µg/mL and the MIC (A. calcoaceticus; [15]) was 4 µg/mL. It also gave an MIC (A. calcoaceticus; [16]) of 4 µg/mL, an MIC (A. calcoaceticus; [17]) of 4 µg/mL and an MIC (E. cloacae; [19]) of 1 µg/mL. For the same molecule, the MIC (E. cloacae; [20]) was 1 µg/mL, the MIC (E. cloacae; [21]) was 2 µg/mL and the MIC (E. cloacae; [22]) was 2 µg/mL. The MIC (E. cloacae; [23]) was 1 µg/mL, the MIC (E. cloacae; [24]) was 1 µg/mL and the MIC (E. cloacae; [25]) was 1 µg/mL. For the same molecule, the MIC (E. cloacae; [26]) was 1 µg/mL, the MIC (E. cloacae; [27]) was 1 µg/mL and the MIC (E. cloacae; [28]) was 1 µg/mL. It also gave an MIC (E. cloacae; [29]) of 1 µg/mL, an MIC (X. maltophila; [33]) of 4 µg/mL and an MIC (X. maltophila; [34]) of 32 µg/mL. For the same molecule, the MIC (X. maltophila; [35]) was 32 µg/mL, the MIC (X. maltophila; [36]) was 32 µg/mL and the MIC (X. maltophila; [37]) was 32 µg/mL. For the same molecule, the MIC (X. maltophila; [38]) was 16 µg/mL, the MIC (X. maltophila; [39]) was 2 µg/mL and the MIC (X. maltophila; [40]) was 2 µg/mL. The MIC (X. maltophila; [41]) was 16 µg/mL.

In the case of CCN1CCN(C(=O)N[C@@H](C(=O)N[C@@H]2C(=O)N3[C@@H]2SC(C)(C)[C@@H]3C(=O)O)c2ccccc2)C(=O)C1=O [Piperacillin], the MIC (P. aeruginosa; [2]) is reported as 1020 µg/mL, the MIC (P. aeruginosa; [3]) is reported as 64 µg/mL and the MIC (P. aeruginosa; [4]) is reported as 64 µg/mL. It also gave an MIC (P. aeruginosa; [5]) of 512 µg/mL, an MIC (P. aeruginosa; [6]) of 1020 µg/mL and an MIC (P. aeruginosa; [7]) of 512 µg/mL. For the same molecule, the MIC (P. aeruginosa; [8]) was 512 µg/mL, the MIC (P. aeruginosa; [30]) was 512 µg/mL and the MIC (P. aeruginosa; [31]) was 64 µg/mL. For the same molecule, the MIC (A. calcoaceticus; [9]) was 8 µg/mL, the MIC (A. calcoaceticus; [32]) was 16 µg/mL and the MIC (A. calcoaceticus; [10]) was 4 µg/mL. For the same molecule, the MIC (A. calcoaceticus; [11]) was 16 µg/mL, the MIC (A. calcoaceticus; [12]) was 16 µg/mL and the MIC (A. calcoaceticus; [13]) was 32 µg/mL. The MIC (A. calcoaceticus; [15]) was 256 µg/mL, the MIC (A. calcoaceticus; [16]) was 32 µg/mL and the MIC (A. calcoaceticus; [17]) was 32 µg/mL. It also gave an MIC (A. calcoaceticus; [18]) of 1020 µg/mL, an MIC (E. cloacae; [19]) of 8 µg/mL and an MIC (E. cloacae; [20]) of 4 µg/mL. For the same molecule, the MIC (E. cloacae; [21]) was 8 µg/mL, the MIC (E. cloacae; [22]) was 8 µg/mL and the MIC (E. cloacae; [23]) was 1020 µg/mL. The MIC (E. cloacae; [24]) was 1020 µg/mL, the MIC (E. cloacae; [25]) was 8 µg/mL and the MIC (E. cloacae; [26]) was 64 µg/mL. It also gave an MIC (E. cloacae; [27]) of 1020 µg/mL, an MIC (E. cloacae; [28]) of 16 µg/mL and an MIC (E. cloacae; [29]) of 4 µg/mL. It also gave an MIC (X. maltophila; X. maltophila isolate 34, strain ATCC 13637) of 1020 µg/mL, an MIC (X. maltophila; [42]) of 1020 µg/mL and an MIC (X. maltophila; [34]) of 512 µg/mL. For the same molecule, the MIC (X. maltophila; [35]) was 512 µg/mL, the MIC (X. maltophila; [36]) was 512 µg/mL and the MIC (X. maltophila; [37]) was 512 µg/mL. The MIC (X. maltophila; [38]) was 1020 µg/mL, the MIC (X. maltophila; [39]) was 1020 µg/mL and the MIC (X. maltophila; [40]) was 1020 µg/mL. For the same molecule, the MIC (X. maltophila; [41]) was 1020 µg/mL and the MIC (X. maltophila; [43]) was 512 µg/mL.

With O=C(O)c1cn(C2CC2)c2cc(N3CCNCC3)c(F)cc2c1=O [Ciprofloxacin] the MIC (P. aeruginosa; [5]) was 32 µg/mL, the MIC (P. aeruginosa; [6]) was 16 µg/mL and the MIC (A. calcoaceticus; [32]) was 8 µg/mL. For the same molecule, the MIC (A. calcoaceticus; [10]) was 8 µg/mL, the MIC (X. maltophila; [33]) was 4 µg/mL and the MIC (X. maltophila; [42]) was 8 µg/mL. The MIC (X. maltophila; [34]) was 16 µg/mL, the MIC (X. maltophila; [35]) was 32 µg/mL and the MIC (X. maltophila; [37]) was 4 µg/mL. For the same molecule, the MIC (X. maltophila; [38]) was 4 µg/mL, the MIC (X. maltophila; [39]) was 8 µg/mL and the MIC (X. maltophila; [40]) was 8 µg/mL. The MIC (X. maltophila; [41]) was 4 µg/mL and the MIC (X. maltophila; [43]) was 4 µg/mL.

— patent US6465429B1, “Antimicrobial cationic peptides” (priority 1995, dated 2002)
